Reference: patent publication US10709129B2, “Synergistic combination of bis-(3-aminopropyl)dodecylamine and sorbic acid” (DDP SPECIALTY ELECTRONIC MATERIALS US, INC., priority 2016, dated 2020)

Experiments:
[1] = tested on: Pseudomonas aeruginosa (DSMZ#939); assay: Minimum Inhibitory Concentration (MIC) test and synergy index (Kull method), TSB pH 5; type: cell-based; conditions: DSM 939 / DSMZ939, Pseudomonas aeruginosa DSM# 939, 30° C., 48 hours, read-out: MIC results for single biocides
Description: (§1) The synergism of the biocides combination of the present invention was determined using the Minimum Inhibitory (MIC) test method described by Kull, F. C., et. al in Applied Microbiology 9:538-541 (1961). The formula to calculate the synergy index (SI) is SI=Qa/QA+Qb/QB Where • QA=minimum inhibitory concentration in ppm of compound A acting alone • Qa=minimum inhibitory concentration in ppm of compound A in the mixture. • QB=minimum inhibitory concentration in ppm of compound B acting alone. • Qb=minimum inhibitory concentration in ppm of compound B in the mixture. […] The Minimum Inhibitory Concentration Test (MIC) is designed to evaluate the lowest concentration of a biocide, biocide blend or biocide combination to prevent bacteria growing in a defined broth. […] The synergy testing was carried out as follows: • 1. The test was executed with a Hamilton MLStarPlus robot using automated turbidity reading with BioTek Synergy H4 plate reader. • 2. […] Reading of the results was carried out by measuring absorbance at 600 nm for each sample at the beginning of the test (tzero) and after incubation (tendpoint). tendpoint was chosen at 48 hours for bacteria and 72 hours for yeast. The difference in absorbance between tendpoint and tzero was used to determine growth (Δ>0.2) or no growth (Δ≤0.2).

[2] = tested on: Candida albicans (DSMZ#1386); assay: as above; type: cell-based; conditions: DSM 1386 / DSMZ1386, Candida albicans DSM# 1386, 30° C., 72 hours, read-out: MIC results for single biocides
Description: as §1

| SMILES | MIC [1] [µg/mL] | MIC [2] [µg/mL] |
| --- | --- | --- |
| C/C=C/C=C/C(=O)O [SA, sorbic acid] | 1230 | 725 |
| CCCCCCCCCCCCN(CCCN)CCCN [BDA, bis-(3-aminopropyl)dodecylamine] | 200 | ≥ 260 |
